Source: DBAASP
Values after ≈ are worked out from the molar mass of the structure shown. One block for each molecule: values may come before it.

Assays:
Test in all cases: ≥ marks a high value that may be exact or a test limit, other limits are often not marked, values filed in µg/mL are converted to µM
[1] = tested on: Escherichia coli ATCC 25922
Escherichia coli K99 = tested on: Escherichia coli K99
Escherichia coli UB1005 = tested on: Escherichia coli UB1005
Escherichia coli K88 = tested on: Escherichia coli K88
[2] = tested on: Pseudomonas aeruginosa PAO1
[3] = tested on: Pseudomonas aeruginosa CICC 21625
[4] = tested on: Pseudomonas aeruginosa ATCC 27853
Acinetobacter baumannii = tested on: Acinetobacter baumannii
[5] = tested on: Salmonella enterica subsp. enterica serovar Pullorum C79-13
Escherichia coli = tested on: Escherichia coli
Pseudomonas aeruginosa = tested on: Pseudomonas aeruginosa
[6] = tested on: Salmonella enterica subsp. enterica serovar Typhimurium ATCC 14028
[7] = tested on: Pseudomonas aeruginosa CICC 21630
Klebsiella pneumoniae = tested on: Klebsiella pneumoniae
[8] = tested on: Salmonella enterica subsp. enterica serovar Typhimurium C77-31
[9] = tested on: Candida albicans CGMCC 2.2086
[10] = tested on: Candida tropicalis CGMCC 2.1975
[11] = tested on: Candida parapsilosis CGMCC 2.3989
Candida albicans = tested on: Candida albicans
[12] = tested on: Vibrio cholerae MTCC 3904
[13] = tested on: Salmonella enterica MTCC 9844
[14] = tested on: Klebsiella pneumoniae MTCC 7407
[15] = tested on: Proteus vulgaris MTCC 1771
[16] = tested on: Shigella flexneri MTCC 1457
[17] = tested on: Staphylococcus aureus MTCC 3160
[18] = tested on: Staphylococcus haemolyticus MTCC 3383
[19] = tested on: Escherichia coli K12 MG1655
[20] = tested on: Enterococcus faecalis MTCC 439
[21] = tested on: Alcaligenes faecalis MTCC 1937
[22] = tested on: Alkalihalobacillus alcalophilus MTCC 860
[23] = tested on: Klebsiella aerogenes MTCC 111
[24] = tested on: Pluralibacter gergoviae MTCC 3826
[25] = tested on: Acinetobacter baumannii MTCC 9829
[26] = tested on: Shigella boydii MTCC 11947
[27] = tested on: Citrobacter freundii MTCC 1658
[28] = tested on: Corynebacterium glutamicum MTCC 2679
[29] = tested on: Bordetella bronchiseptica MTCC 6837
[30] = tested on: Klebsiella oxytoca MTCC 2275
[31] = tested on: Haemophilus influenzae MTCC 621
[32] = tested on: Proteus mirabilis MTCC 3158
[33] = tested on: Stenotrophomonas maltophilia MTCC 1890
[34] = tested on: Pseudomonas aeruginosa MTCC 3542
[35] = tested on: Citrobacter koseri MTCC 1657

- MIC [1]: 1 µM (≈ 3.37 µg/mL)
- MIC (Escherichia coli K99): 1 µM (≈ 3.37 µg/mL)
- MIC (Escherichia coli UB1005): 2 µM (≈ 6.75 µg/mL)
- MIC (Escherichia coli K88): 1 µM (≈ 3.37 µg/mL)
- MIC [2]: 1 µM (≈ 3.37 µg/mL)
- MIC [3]: 8 µM (≈ 27 µg/mL)
- MIC [4]: 1 µM (≈ 3.37 µg/mL)
- MIC (Acinetobacter baumannii): 1 µM (≈ 3.37 µg/mL)
- MIC [5]: 1 µM (≈ 3.37 µg/mL)
- MIC (Escherichia coli): 1 µM (≈ 3.37 µg/mL)
- MIC (Pseudomonas aeruginosa): 2.83 µM (≈ 9.54 µg/mL)
- MIC [6]: 1 µM (≈ 3.37 µg/mL)
- MIC [7]: 2 µM (≈ 6.75 µg/mL)
- MIC (Klebsiella pneumoniae): 2 µM (≈ 6.75 µg/mL)
- MIC [8]: 2 µM (≈ 6.75 µg/mL)
SMILES: CC(C)C[C@H](NC(=O)[C@@H]1CCCN1C(=O)[C@H](CCCN=C(N)N)NC(=O)[C@H](CC(C)C)NC(=O)[C@H](CC(C)C)NC(=O)[C@@H]1CCCN1C(=O)[C@H](CCCN=C(N)N)NC(=O)[C@H](CC(C)C)NC(=O)[C@H](CC(C)C)NC(=O)[C@@H]1CCCN1C(=O)[C@H](CCCN=C(N)N)NC(=O)[C@H](CC(C)C)NC(=O)[C@H](CC(C)C)NC(=O)[C@@H]1CCCN1C(=O)[C@H](CCCN=C(N)N)NC(=O)[C@H](CC(C)C)NC(=O)[C@H](CC(C)C)NC(=O)[C@@H]1CCCN1C(=O)[C@H](CCCN=C(N)N)NC(=O)[C@H](CC(C)C)NC(=O)[C@H](CC(C)C)NC(=O)[C@@H]1CCCN1C(=O)[C@H](CCCN=C(N)N)NC(=O)[C@H](CC(C)C)NC(=O)[C@H](CC(C)C)NC(=O)[C@@H]1CCCN1C(=O)[C@H](CCCN=C(N)N)NC(=O)[C@@H](N)CC(C)C)C(N)=O [LRPLLRPLLRPLLRPLLRPLLRPLLRPL]

- MIC [9]: ≥ 64 µM
- MIC [10]: ≥ 64 µM
- MIC [11]: ≥ 64 µM
- MIC (Candida albicans): > 64 µM
SMILES: CC[C@H](C)[C@H](NC(=O)[C@@H](N)CCCCN)C(=O)NCC(=O)N[C@@H](CCCCN)C(=O)N[C@H](C(=O)N[C@@H](CC(C)C)C(N)=O)C(C)C [KIGKVL]

- MIC [9]: ≥ 64 µM
- MIC [10]: ≥ 64 µM
- MIC [11]: ≥ 64 µM
- MIC (Candida albicans): > 64 µM
SMILES: CC[C@H](C)[C@H](NC(=O)CNC(=O)[C@H](CCCCN)NC(=O)[C@@H](NC(=O)[C@H](CC(C)C)NC(=O)[C@H](CC(C)C)NC(=O)[C@@H](NC(=O)[C@H](CCCCN)NC(=O)CNC(=O)[C@@H](NC(=O)[C@@H](N)CCCCN)[C@@H](C)CC)C(C)C)C(C)C)C(=O)N[C@@H](CCCCN)C(N)=O [KIGKVLLVKGIK]

SMILES: CC[C@H](C)[C@H](NC(=O)[C@H](CCCCN)NC(=O)[C@H](CCCCN)NC(=O)[C@H](C)NC(=O)[C@H](CCCCN)NC(=O)[C@H](CO)NC(=O)[C@H](CCCN=C(N)N)NC(=O)[C@H](Cc1c[nH]c2ccccc12)NC(=O)[C@H](CCCCN)NC(=O)[C@H](CCCCN)NC(=O)[C@H](Cc1c[nH]c2ccccc12)NC(=O)[C@H](CCCN=C(N)N)NC(=O)[C@H](CCCCN)NC(=O)[C@@H](N)Cc1ccc(O)cc1)C(=O)N[C@@H](CC(C)C)C(=O)O [YKRWKKWRSKAKKIL]
- MIC [12]: ≥ 63.4 µM
- MIC [13]: 7.92 µM (≈ 16 µg/mL)
- MIC [14]: ≥ 63.4 µM
- MIC [15]: 31.7 µM (≈ 64 µg/mL)
- MIC [16]: 3.96 µM (≈ 8 µg/mL)
- MIC [17]: ≥ 63.4 µM
- MIC [18]: 1.98 µM (≈ 4 µg/mL)
- MIC [19]: 1.98 µM (≈ 4 µg/mL)
- MIC [20]: ≥ 63.4 µM
- MIC [21]: ≥ 63.4 µM
- MIC [22]: 31.7 µM (≈ 64 µg/mL)
- MIC [23]: ≥ 63.4 µM
- MIC [24]: ≥ 63.4 µM
- MIC [25]: 7.92 µM (≈ 16 µg/mL)
- MIC [26]: 3.96 µM (≈ 8 µg/mL)
- MIC [27]: ≥ 63.4 µM
- MIC [28]: 0.99 µM (≈ 2 µg/mL)
- MIC [6]: 15.8 µM (≈ 32 µg/mL)
- MIC [29]: 3.96 µM (≈ 8 µg/mL)
- MIC [30]: 15.8 µM (≈ 32 µg/mL)
- MIC [31]: 15.8 µM (≈ 32 µg/mL)
- MIC [32]: ≥ 63.4 µM
- MIC [33]: ≥ 63.4 µM
- MIC [34]: ≥ 63.4 µM
- MIC [35]: 7.92 µM (≈ 16 µg/mL)

- MIC [1]: 16 µM (≈ 43.6 µg/mL)
- MIC (Escherichia coli K99): 8 µM (≈ 21.8 µg/mL)
- MIC (Escherichia coli UB1005): 16 µM (≈ 43.6 µg/mL)
- MIC (Escherichia coli K88): 4 µM (≈ 10.9 µg/mL)
- MIC [2]: > 64 µM
- MIC [3]: ≥ 64 µM
- MIC [4]: > 64 µM
- MIC (Acinetobacter baumannii): 16 µM (≈ 43.6 µg/mL)
- MIC [5]: ≥ 64 µM
- MIC (Escherichia coli): 64 µM (≈ 175 µg/mL)
- MIC (Pseudomonas aeruginosa): > 64 µM
- MIC [6]: 64 µM (≈ 175 µg/mL)
- MIC [7]: ≥ 64 µM
- MIC (Klebsiella pneumoniae): > 64 µM
- MIC [8]: ≥ 64 µM
SMILES: CC[C@H](C)[C@H](N)C(=O)N[C@@H](CCCCN)C(=O)N1CCC[C@H]1C(=O)N[C@H](C(=O)N[C@H](C(=O)N[C@@H](CCCCN)C(=O)N1CCC[C@H]1C(=O)N[C@H](C(=O)N[C@H](C(=O)N[C@@H](CCCCN)C(=O)N1CCC[C@H]1C(=O)N[C@H](C(=O)N[C@H](C(=O)N[C@@H](CCCCN)C(=O)N1CCC[C@H]1C(=O)N[C@H](C(=O)N[C@H](C(=O)N[C@@H](CCCCN)C(=O)N1CCC[C@H]1C(=O)N[C@H](C(=O)N[C@H](C(=O)N[C@@H](CCCCN)C(=O)N1CCC[C@H]1C(=O)N[C@H](C(N)=O)[C@@H](C)CC)[C@@H](C)CC)[C@@H](C)CC)[C@@H](C)CC)[C@@H](C)CC)[C@@H](C)CC)[C@@H](C)CC)[C@@H](C)CC)[C@@H](C)CC)[C@@H](C)CC)[C@@H](C)CC [IKPIIKPIIKPIIKPIIKPIIKPI]

- MIC [1]: 8 µM (≈ 25.4 µg/mL)
- MIC (Escherichia coli K99): 16 µM (≈ 50.8 µg/mL)
- MIC (Escherichia coli UB1005): 8 µM (≈ 25.4 µg/mL)
- MIC (Escherichia coli K88): 8 µM (≈ 25.4 µg/mL)
- MIC [2]: > 64 µM
- MIC [3]: ≥ 64 µM
- MIC [4]: > 64 µM
- MIC (Acinetobacter baumannii): 4 µM (≈ 12.7 µg/mL)
- MIC [5]: 4 µM (≈ 12.7 µg/mL)
- MIC (Escherichia coli): 8 µM (≈ 25.4 µg/mL)
- MIC (Pseudomonas aeruginosa): > 64 µM
- MIC [6]: 8 µM (≈ 25.4 µg/mL)
- MIC [7]: ≥ 64 µM
- MIC (Klebsiella pneumoniae): 32 µM (≈ 102 µg/mL)
- MIC [8]: 16 µM (≈ 50.8 µg/mL)
SMILES: CC(C)[C@H](N)C(=O)N[C@@H](CCCN=C(N)N)C(=O)N1CCC[C@H]1C(=O)N[C@H](C(=O)N[C@H](C(=O)N[C@@H](CCCN=C(N)N)C(=O)N1CCC[C@H]1C(=O)N[C@H](C(=O)N[C@H](C(=O)N[C@@H](CCCN=C(N)N)C(=O)N1CCC[C@H]1C(=O)N[C@H](C(=O)N[C@H](C(=O)N[C@@H](CCCN=C(N)N)C(=O)N1CCC[C@H]1C(=O)N[C@H](C(=O)N[C@H](C(=O)N[C@@H](CCCN=C(N)N)C(=O)N1CCC[C@H]1C(=O)N[C@H](C(=O)N[C@H](C(=O)N[C@@H](CCCN=C(N)N)C(=O)N1CCC[C@H]1C(=O)N[C@H](C(=O)N[C@H](C(=O)N[C@@H](CCCN=C(N)N)C(=O)N1CCC[C@H]1C(=O)N[C@H](C(N)=O)C(C)C)C(C)C)C(C)C)C(C)C)C(C)C)C(C)C)C(C)C)C(C)C)C(C)C)C(C)C)C(C)C)C(C)C)C(C)C [VRPVVRPVVRPVVRPVVRPVVRPVVRPV]
